What was measured:
[1] = biological target: Tyrosine-protein kinase Blk (Homo sapiens) (UniProt P51451); experiment: Inhibition of recombinant human His-tagged full length BLK expressed in baculovirus expression system at 500 nM using Tyr 01 peptide as substrate incubated for 1 hr in presence of ATP at its Km concentration by Z'-LYTE assay relative to control
[2] = biological target: Vascular endothelial growth factor receptor 3 (Homo sapiens) (UniProt P35916); experiment: Inhibition of recombinant human GST-tagged FLT4 (800 to 1297 residues) expressed in baculovirus expression system at 500 nM using Tyr 04 peptide as substrate incubated for 1 hr in presence of ATP at its Km concentration by Z'-LYTE assay relative to control
[3] = biological target: Fibroblast growth factor receptor 1 (Homo sapiens) (UniProt P11362); experiment: Inhibition of recombinant human His-tagged FGFR1 (308 to 731 residues) expressed in baculovirus expression system at 500 nM using Tyr 04 peptide as substrate incubated for 1 hr in presence of ATP at its Km concentration by Z'-LYTE assay relative to control
Chain of Fibroblast growth factor receptor 1 (Homo sapiens) (P11362 22-822 limits assumed): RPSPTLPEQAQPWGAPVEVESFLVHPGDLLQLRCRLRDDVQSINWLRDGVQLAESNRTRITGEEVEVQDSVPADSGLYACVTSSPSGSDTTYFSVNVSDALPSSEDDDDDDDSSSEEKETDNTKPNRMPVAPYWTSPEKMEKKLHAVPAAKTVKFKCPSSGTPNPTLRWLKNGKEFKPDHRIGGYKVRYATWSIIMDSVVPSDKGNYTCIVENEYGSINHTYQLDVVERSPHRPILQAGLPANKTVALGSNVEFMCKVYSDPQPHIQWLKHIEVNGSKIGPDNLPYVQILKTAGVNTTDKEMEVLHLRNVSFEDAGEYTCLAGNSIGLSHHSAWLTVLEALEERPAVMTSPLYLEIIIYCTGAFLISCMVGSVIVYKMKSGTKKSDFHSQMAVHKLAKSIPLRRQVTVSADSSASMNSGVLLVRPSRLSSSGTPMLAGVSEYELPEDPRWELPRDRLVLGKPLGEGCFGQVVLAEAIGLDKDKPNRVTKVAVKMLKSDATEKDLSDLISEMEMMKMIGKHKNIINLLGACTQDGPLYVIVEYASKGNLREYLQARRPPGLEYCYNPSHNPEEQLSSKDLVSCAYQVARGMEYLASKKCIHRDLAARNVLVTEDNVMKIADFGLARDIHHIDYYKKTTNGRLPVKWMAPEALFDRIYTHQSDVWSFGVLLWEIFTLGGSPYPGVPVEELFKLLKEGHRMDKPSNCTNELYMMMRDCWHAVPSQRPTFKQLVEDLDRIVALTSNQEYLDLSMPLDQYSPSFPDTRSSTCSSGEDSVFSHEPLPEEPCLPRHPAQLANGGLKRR

[4] = biological target: Glycogen synthase kinase-3 beta (Homo sapiens) (UniProt P49841); experiment: Inhibition of recombinant full-length human His-tagged GSK3beta expressed in baculovirus expression system at 500 nM using Ser/Thr 09 as substrate incubated for 1 hr in presence of ATP at its Km concentration by Z'-LYTE assay relative to control
Chain of Glycogen synthase kinase-3 beta (Homo sapiens) (P49841 whole entry, looked up, the tested form may be a part): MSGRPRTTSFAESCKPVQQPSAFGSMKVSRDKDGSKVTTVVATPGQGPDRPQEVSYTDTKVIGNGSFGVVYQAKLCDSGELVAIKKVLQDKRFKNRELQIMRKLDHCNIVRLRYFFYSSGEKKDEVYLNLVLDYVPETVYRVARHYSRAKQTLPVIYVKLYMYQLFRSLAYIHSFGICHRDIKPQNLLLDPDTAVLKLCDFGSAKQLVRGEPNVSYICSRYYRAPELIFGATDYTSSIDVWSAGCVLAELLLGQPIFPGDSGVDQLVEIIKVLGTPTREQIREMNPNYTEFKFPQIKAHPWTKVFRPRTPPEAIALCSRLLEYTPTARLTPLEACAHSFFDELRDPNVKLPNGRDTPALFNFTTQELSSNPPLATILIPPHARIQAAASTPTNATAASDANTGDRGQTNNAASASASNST

[5] = biological target: Platelet-derived growth factor receptor beta (Homo sapiens) (UniProt P09619); experiment: Inhibition of recombinant human His-tagged PDGFRbeta cytoplasmic domain expressed in baculovirus expression system at 500 nM using Tyr 04 as substrate incubated for 1 hr in presence of ATP at its Km concentration by Z'-LYTE assay relative to control
[6] = biological target: cAMP-dependent protein kinase catalytic subunit alpha (Homo sapiens) (UniProt P17612); experiment: Inhibition of recombinant human His-tagged PRKACA (1 to 351 residues) expressed in Escherichia coli expression system at 500 nM using Ser/Thr 01 as substrate incubated for 1 hr in presence of ATP at its Km concentration by Z'-LYTE assay relative to control
[7] = biological target: Serine/threonine-protein kinase B-raf (Homo sapiens) (UniProt P15056); experiment: Inhibition of recombinant human GST-tagged full length BRAF expressed in baculovirus expression system at 500 nM using Ser/Thr 03 peptide as substrate incubated for 1 hr in presence of 100 uM ATP by Z'-LYTE assay relative to control
[8] = biological target: Protein kinase C theta type (Homo sapiens) (UniProt Q04759); experiment: Inhibition of recombinant human His-tagged full length PRKCQ expressed in baculovirus expression system at 500 nM using Ser/Thr 07 as substrate incubated for 1 hr in presence of ATP at its Km concentration by Z'-LYTE assay relative to control
Chain of Protein kinase C theta type (Homo sapiens) (Q04759 whole entry, looked up): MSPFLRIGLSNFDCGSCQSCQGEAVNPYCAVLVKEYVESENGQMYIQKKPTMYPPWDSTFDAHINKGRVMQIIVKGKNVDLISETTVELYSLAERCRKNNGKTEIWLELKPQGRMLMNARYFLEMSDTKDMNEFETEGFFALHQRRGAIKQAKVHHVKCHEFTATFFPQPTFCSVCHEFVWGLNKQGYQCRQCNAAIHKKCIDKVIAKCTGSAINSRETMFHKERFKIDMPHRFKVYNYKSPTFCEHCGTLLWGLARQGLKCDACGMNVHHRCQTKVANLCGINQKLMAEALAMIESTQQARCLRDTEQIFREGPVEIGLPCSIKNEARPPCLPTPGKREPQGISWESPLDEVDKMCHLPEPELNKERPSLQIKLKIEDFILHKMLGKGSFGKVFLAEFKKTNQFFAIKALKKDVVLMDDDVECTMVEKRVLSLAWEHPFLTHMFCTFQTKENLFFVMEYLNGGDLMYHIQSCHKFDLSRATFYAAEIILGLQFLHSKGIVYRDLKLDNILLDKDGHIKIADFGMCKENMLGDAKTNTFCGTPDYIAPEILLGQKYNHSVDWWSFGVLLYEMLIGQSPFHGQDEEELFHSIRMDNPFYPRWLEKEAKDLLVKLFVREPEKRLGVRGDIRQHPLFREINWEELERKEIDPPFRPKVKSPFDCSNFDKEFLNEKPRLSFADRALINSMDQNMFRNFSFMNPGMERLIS

[9] = biological target: Protein kinase C beta type (Homo sapiens) (UniProt P05771); experiment: Inhibition of human full length GST tagged PRKCB1 expressed in insect cells at 500 nM using Ser/Thr 07 as substrate incubated for 1 hr in presence of ATP at its Km concentration by Z'-LYTE assay relative to control
Chain of Protein kinase C beta type (Homo sapiens) (P05771 2-671 limits assumed): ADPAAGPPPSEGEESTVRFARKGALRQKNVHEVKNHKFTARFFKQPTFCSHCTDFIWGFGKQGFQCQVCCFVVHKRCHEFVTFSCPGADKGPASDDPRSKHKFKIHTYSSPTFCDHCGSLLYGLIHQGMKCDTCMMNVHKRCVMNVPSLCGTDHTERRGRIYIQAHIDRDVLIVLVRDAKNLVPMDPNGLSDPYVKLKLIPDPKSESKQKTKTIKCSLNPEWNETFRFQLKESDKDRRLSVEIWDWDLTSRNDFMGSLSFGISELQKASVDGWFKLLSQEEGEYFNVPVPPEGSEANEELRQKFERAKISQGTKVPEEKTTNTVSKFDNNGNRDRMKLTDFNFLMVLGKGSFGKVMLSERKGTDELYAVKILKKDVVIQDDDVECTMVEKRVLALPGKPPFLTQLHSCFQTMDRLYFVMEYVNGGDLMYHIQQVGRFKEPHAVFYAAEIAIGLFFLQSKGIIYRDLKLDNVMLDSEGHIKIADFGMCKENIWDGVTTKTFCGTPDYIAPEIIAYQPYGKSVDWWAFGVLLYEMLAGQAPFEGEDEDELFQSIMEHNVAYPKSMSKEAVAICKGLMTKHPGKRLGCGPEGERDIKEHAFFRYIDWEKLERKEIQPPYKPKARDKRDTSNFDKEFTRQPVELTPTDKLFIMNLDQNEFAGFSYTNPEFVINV

[10] = biological target: Tyrosine-protein kinase FRK (Homo sapiens) (UniProt P42685); experiment: Inhibition of recombinant human GST-tagged full length FRK expressed in baculovirus expression system at 500 nM using Tyr 01 peptide as substrate incubated for 1 hr in presence of ATP at its Km concentration by Z'-LYTE assay relative to control
Chain of Tyrosine-protein kinase FRK (Homo sapiens) (P42685 whole entry, the tested form may be a part): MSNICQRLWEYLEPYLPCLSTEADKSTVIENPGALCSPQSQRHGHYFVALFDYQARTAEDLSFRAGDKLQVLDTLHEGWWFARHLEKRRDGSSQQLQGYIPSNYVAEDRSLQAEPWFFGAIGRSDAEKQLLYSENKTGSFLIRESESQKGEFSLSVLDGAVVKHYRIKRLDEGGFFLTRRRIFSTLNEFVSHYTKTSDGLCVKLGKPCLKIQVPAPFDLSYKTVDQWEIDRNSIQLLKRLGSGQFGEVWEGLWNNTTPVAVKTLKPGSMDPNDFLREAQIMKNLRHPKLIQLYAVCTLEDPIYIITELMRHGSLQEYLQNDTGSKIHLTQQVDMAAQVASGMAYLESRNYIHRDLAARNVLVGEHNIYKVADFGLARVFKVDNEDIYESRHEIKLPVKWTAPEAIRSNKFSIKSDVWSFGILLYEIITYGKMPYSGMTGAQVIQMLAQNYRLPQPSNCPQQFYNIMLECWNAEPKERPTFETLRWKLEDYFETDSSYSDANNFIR

[11] = biological target: Ephrin type-A receptor 2 (Homo sapiens) (UniProt P29317); experiment: Inhibition of recombinant human GST-tagged EPHA2 cytoplasmic domain expressed in baculovirus expression system at 500 nM using Tyr 01 peptide as substrate incubated for 1 hr in presence of ATP at its Km concentration by Z'-LYTE assay relative to control
Chain of Ephrin type-A receptor 2 (Homo sapiens) (P29317 whole entry, the tested form may be a part): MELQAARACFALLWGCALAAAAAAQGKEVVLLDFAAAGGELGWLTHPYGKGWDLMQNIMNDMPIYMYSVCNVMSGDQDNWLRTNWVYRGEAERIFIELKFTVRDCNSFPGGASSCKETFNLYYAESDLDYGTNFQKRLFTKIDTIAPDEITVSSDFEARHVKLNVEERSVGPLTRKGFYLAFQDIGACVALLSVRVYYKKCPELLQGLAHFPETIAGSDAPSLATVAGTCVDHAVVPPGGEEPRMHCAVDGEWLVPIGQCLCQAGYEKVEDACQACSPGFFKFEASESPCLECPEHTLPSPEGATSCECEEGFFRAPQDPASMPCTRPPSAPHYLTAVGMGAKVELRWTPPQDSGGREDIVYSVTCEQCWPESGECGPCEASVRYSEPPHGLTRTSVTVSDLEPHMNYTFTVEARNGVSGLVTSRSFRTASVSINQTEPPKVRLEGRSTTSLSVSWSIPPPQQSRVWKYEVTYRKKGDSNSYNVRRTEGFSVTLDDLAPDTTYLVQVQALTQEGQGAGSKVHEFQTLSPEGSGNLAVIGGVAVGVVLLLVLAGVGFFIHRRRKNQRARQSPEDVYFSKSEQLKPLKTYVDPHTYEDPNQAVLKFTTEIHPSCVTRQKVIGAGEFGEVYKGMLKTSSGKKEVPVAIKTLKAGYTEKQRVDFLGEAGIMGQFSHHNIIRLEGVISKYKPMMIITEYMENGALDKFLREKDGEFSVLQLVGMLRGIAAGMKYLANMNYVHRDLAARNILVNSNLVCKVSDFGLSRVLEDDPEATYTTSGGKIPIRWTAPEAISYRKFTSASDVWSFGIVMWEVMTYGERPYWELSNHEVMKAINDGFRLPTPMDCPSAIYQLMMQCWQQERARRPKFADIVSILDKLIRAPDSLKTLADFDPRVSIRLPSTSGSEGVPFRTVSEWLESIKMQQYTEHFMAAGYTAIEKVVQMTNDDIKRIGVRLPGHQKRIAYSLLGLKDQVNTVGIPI

[12] = biological target: Mitogen-activated protein kinase 8 (Homo sapiens) (UniProt P45983); experiment: Inhibition of recombinant human His tagged human MAPK8 expressed in baculovirus expression system at 500 nM using Ser/Thr 04 as substrate incubated for 1 hr in presence of 100 uM ATP by Z'-LYTE assay relative to control
Chain of Mitogen-activated protein kinase 8 (Homo sapiens) (P45983 whole entry): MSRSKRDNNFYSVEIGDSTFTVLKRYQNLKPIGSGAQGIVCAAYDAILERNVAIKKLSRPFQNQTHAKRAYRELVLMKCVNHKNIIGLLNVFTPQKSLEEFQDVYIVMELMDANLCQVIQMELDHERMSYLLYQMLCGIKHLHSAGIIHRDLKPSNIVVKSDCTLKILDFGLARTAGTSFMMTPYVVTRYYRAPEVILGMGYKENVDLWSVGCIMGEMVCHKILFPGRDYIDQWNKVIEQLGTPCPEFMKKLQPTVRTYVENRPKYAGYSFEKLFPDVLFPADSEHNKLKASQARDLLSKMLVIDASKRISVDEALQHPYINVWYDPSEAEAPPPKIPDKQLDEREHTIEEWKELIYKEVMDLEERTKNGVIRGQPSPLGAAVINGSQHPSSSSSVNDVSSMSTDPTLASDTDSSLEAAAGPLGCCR

[13] = biological target: T1, Aurora kinase A (Homo sapiens) (UniProt O14965); experiment: Inhibition of recombinant human full length His-tagged AURKA expressed in baculovirus expression system at 500 nM using Ser/Thr 01 as substrate incubated for 1 hr in presence of ATP at its Km concentration by Z'-LYTE assay relative to control
T1 sequence (whole entry): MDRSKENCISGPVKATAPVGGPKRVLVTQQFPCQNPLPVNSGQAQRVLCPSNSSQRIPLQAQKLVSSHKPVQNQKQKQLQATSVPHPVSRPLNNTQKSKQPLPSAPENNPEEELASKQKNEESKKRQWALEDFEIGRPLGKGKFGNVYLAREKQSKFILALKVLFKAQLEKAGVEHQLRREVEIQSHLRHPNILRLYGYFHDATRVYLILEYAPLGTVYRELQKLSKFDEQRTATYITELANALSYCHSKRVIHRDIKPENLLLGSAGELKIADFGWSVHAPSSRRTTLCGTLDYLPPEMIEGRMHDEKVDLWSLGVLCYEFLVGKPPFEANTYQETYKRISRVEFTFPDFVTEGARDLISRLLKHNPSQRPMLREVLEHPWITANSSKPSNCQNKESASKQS

[14] = biological target: Tyrosine-protein kinase Fer (Homo sapiens) (UniProt P16591); experiment: Inhibition of recombinant human GST-tagged FER (541 to 822 residues) expressed in baculovirus expression system at 500 nM using Tyr 05 peptide as substrate incubated for 1 hr in presence of ATP at its Km concentration by Z'-LYTE assay relative to control

Chain of Tyrosine-protein kinase Blk (Homo sapiens) (P51451 2-505 limits assumed): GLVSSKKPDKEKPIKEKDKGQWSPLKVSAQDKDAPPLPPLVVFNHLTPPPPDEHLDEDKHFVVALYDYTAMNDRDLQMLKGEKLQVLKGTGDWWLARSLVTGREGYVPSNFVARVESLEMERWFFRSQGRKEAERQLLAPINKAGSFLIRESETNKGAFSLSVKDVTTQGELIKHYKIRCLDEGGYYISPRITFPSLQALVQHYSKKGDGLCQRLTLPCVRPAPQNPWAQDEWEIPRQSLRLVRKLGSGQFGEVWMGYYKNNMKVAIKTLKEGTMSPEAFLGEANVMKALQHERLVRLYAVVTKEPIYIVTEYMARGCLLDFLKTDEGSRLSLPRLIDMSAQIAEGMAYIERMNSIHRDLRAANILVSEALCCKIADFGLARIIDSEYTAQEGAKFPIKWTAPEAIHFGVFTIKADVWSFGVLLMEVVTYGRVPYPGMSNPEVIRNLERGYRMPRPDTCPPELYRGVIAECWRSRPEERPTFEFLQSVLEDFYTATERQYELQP

SMILES | inhibition [1] | inhibition [2] | inhibition [3] | inhibition [4] | inhibition [5] | inhibition [6] | inhibition [7] | inhibition [8] | inhibition [9] | inhibition [10] | inhibition [11] | inhibition [12] | inhibition [13] | inhibition [14]
COc1ccccc1-c1cc2c(N[C@H](CO)c3ccccc3)ncnc2[nH]1 | 29% | 12% | 6% | 6% | 0% | -1% | 4% | 5% | 8% | 36% | 7% | 7% | 9% | 7%
OCC[C@@H](Nc1ncnc2[nH]c(-c3ccccc3)cc12)c1ccccc1 | 17% | 20% | 0% | 8% | 11% | 7% | -3% | 5% | 6% | 14% | 23% | 27% | -3% | 10%

Further lines, results first:

inhibition [1] | inhibition [2] | inhibition [3] | inhibition [4] | inhibition [5] | inhibition [6] | inhibition [7] | inhibition [8] | inhibition [9] | inhibition [10] | inhibition [11] | inhibition [12] | inhibition [13] | inhibition [14] | SMILES
33% | 6% | 16% | 8% | -1% | 1% | -2% | 12% | 1% | 33% | 16% | 0% | 19% | 6% | OC[C@@H](Nc1ncnc2[nH]c(-c3ccccc3)cc12)c1ccccc1
38% | 44% | -4% | -8% | -5% | -10% | 3% | -4% | -2% | 16% | 11% | 32% | 20% | -1% | C#Cc1cccc(Nc2ncnc3cc(OCCOC)c(OCCOC)cc23)c1 [ERLOTINIB]
14% | 21% | 3% | 13% | 8% | 6% | 7% | 2% | 15% | 32% | 21% | 17% | -2% | 12% | CCOc1ccccc1-c1cc2c(N[C@H](CO)c3ccccc3)ncnc2[nH]1
22% | 27% | 9% | 8% | 10% | 4% | -4% | 1% | 17% | 49% | 54% | 19% | 3% | 7% | CN(C)CCNCc1ccc(-c2cc3c(N[C@H](CO)c4ccccc4)ncnc3[nH]2)cc1F
